Measurements: patent US20240391862A1, “(1,4,5-TRISUBSTITUTED-1H-PYRAZOL-3-YL)OXY-2-ALKOXY ALKYL ACIDS AND THEIR DERIVATIVES, THEIR SALTS AND THEIR USE AS HERBICIDAL AGENTS” (Bayer AKtiengesellschaft, priority 2021, published 2024)

How the values were obtained:
ZEAMX = test: Post-emergence herbicidal effect and crop plant compatibility, greenhouse pot test; type: in vivo, Zea mays; conditions: one-leaf stage, rated visually after about 3 weeks vs untreated controls
How it was run: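 Sandy loam pots, greenhouse. One-leaf stage (2–3 wk after sowing) foliar spray; WP/EC in water + 0.5% additive, 600 l/ha; 20–320 g/ha. Visual score ~3 wk, 0–100% vs untreated.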

ALOMY = test: Post-emergence herbicidal effect, greenhouse pot test; type: in vivo, Alopecurus myosuroides; conditions: 320 g/ha, visual rating about 3 weeks after treatment
How it was run: (§1)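 Greenhouse pot test: weeds and crops sown in sandy loam, sprayed post-emergence at one-leaf stage (2–3 weeks after sowing) with WP or EC formulations plus 0.5% additive at 600 l/ha water, rates 20–320 g/ha. Visual rating about 3 weeks later versus untreated controls (100% = dead, 0% = as control).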

SETVI = test: as above; type: in vivo, Setaria viridis
How it was run: as §1

ECHCG = test: as above; type: in vivo, Echinochloa crus-galli
How it was run: as §1

AMARE = test: as above; type: in vivo, Amaranthus retroflexus; conditions: visual rating about 3 weeks after treatment
How it was run: as §1

ABUTH = test: as above; type: in vivo, Abutilon theophrasti; conditions: visual rating about 3 weeks after treatment
How it was run: as §1

DIGSA = test: as above; type: in vivo, Digitaria sanguinalis; conditions: 320 g/ha, visual rating about 3 weeks after treatment
How it was run: as §1

VIOTR = test: as above; type: in vivo, Viola tricolor
How it was run: as §1

VERPE = test: as above; type: in vivo, Veronica persica
How it was run: as §1

ORYSA = test: Post-emergence herbicidal effect and crop plant compatibility, greenhouse pot test; type: in vivo, Oryza sativa; conditions: 20 g/ha, visual rating about 3 weeks after treatment, crop plant
Description: • ALOMY: Alopecurus myosuroides SETVI: Setaria viridis • AVEFA: Avena fatua POLCO: Fallopia convolvulus • AMARE: Amaranthus retroflexus ECHCG: Echinochloa crus-galli • LOLRJ: Lolium rigidum STEME: Stellaria media • VERPE: Veronica persica MATIN: Tripleurospermum inodorum • DIGSA: Digitaria sanguinalis ABUTH: Abutylon threophrasti • TRZAS: Triticum aestivum VIOTR: Viola tricolor • BRSNW: Brassica napus ZEAMX: Zea mays • PHBPU: Ipomoea purpurea GLXMA: Glycine max • ORYSA: Oryza sativa HORMU: Hordeum murinum
Seeds of monocotyledonous and dicotyledonous weeds and crop plants are placed in sandy loam in plastic or organic planting pots, covered with soil and cultivated in a greenhouse under controlled growth conditions. 2 to 3 weeks after sowing, the trial plants are treated at the one-leaf stage. The compounds of the invention, formulated in the form of wettable powders (WP) or as emulsion concentrates (EC), are then sprayed onto the green parts of the plants as aqueous suspension or emulsion with addition of 0.5% additive at a water application rate of 600 l/ha (converted). After the test plants have been kept in the greenhouse under optimum growth conditions for about 3 weeks, the activity of the preparations is rated visually in comparison to untreated controls. For example, 100% activity=the plants have died, 0% activity=like control plants.
Tables 20a to 38c below show the effects/crop compatibilities of selected compounds of the general formula (I) on various harmful plants at an application rate corresponding to 20 to 320 g/ha, which were obtained by the trial procedure specified above.

POLCO = test: Post-emergence herbicidal effect, greenhouse pot test; type: in vivo, Fallopia convolvulus; conditions: 320 g/ha
How it was run: as §1

AVEFA = test: as above; type: in vivo, Avena fatua; conditions: 320 g/ha, visual rating about 3 weeks after treatment
How it was run: as §1

MATIN = test: as above; type: in vivo, Tripleurospermum inodorum
How it was run: as §1

PHBPU = test: as above; type: in vivo, Ipomoea purpurea
How it was run: as §1

various unwanted plants [1] = test: Post-emergence effect against various unwanted plants (PO): comparative test of I-01 with compounds from WO2020/245044 (Tables 41a, 41b) and summary statements; type: in vivo; conditions: comparative test
Protocol: Seeds of monocotyledonous and dicotyledonous weeds and crop plants are placed in sandy loam in plastic or organic planting pots, covered with soil and cultivated in a greenhouse under controlled growth conditions. 2 to 3 weeks after sowing, the trial plants are treated at the one-leaf stage. The compounds of the invention, formulated in the form of wettable powders (WP) or as emulsion concentrates (EC), are then sprayed onto the green parts of the plants as aqueous suspension or emulsion with addition of 0.5% additive at a water application rate of 600 l/ha (converted). After the test plants have been kept in the greenhouse under optimum growth conditions for about 3 weeks, the activity of the preparations is rated visually in comparison to untreated controls. For example, 100% activity=the plants have died, 0% activity=like control plants. […] Tables 41a and 41b below show the effects of the inventive compound (I-01) with structurally similar compounds (WO2020/245044) on various harmful plants at an application rate corresponding to 320 g/ha or less, which have been obtained by the trial procedure specified hereinafter. The inventive compound (I-01) differs here by variance of a significant structural feature from the structurally similar compound with regard to the R^2 radical. Seeds of monocotyledonous and dicotyledonous weeds and crop plants are placed in sandy loam in plastic or organic planting pots, covered with soil and cultivated in a greenhouse under controlled growth conditions. 2 to 3 weeks after sowing, the trial plants are treated at the one-leaf stage. The compounds of the invention, formulated in the form of wettable powders (WP) or as emulsion concentrates (EC), are then sprayed onto the green parts of the plants as aqueous suspension or emulsion with addition of 0.5% additive at a water application rate of 600 l/ha (converted). After the test plants have been kept in the greenhouse under optimum growth conditions for about 3 weeks, the activity of the preparations is rated visually in comparison to untreated controls. For example, 100% activity=the plants have died, 0% activity=like control plants. Effects/crop compatibilities of selected compounds (see Table 39) on various harmful plants at an application rate corresponding to 80 to 320 g/ha that have been obtained by the trial procedure specified hereinafter are shown in Tables 41a and 41b below.

various unwanted plants [2] = test: Pre-emergence effect against various unwanted plants (PE): comparative test of I-01 with compounds from WO2020/245044 (Tables 40a, 40b) and summary statements; type: in vivo; conditions: comparative test
Description: Seeds of monocotyledonous and dicotyledonous weed plants and crop plants are placed in plastic or organic planting pots and covered with soil. The compounds of the invention, formulated in the form of wettable powders (WP) or as emulsion concentrates (EC), are then applied to the surface of the covering soil as aqueous suspension or emulsion with addition of 0.5% additive at a water application rate equivalent to 600 l/ha. After the treatment, the pots are placed in a greenhouse and kept under good growth conditions for the trial plants. After about 3 weeks, the effect of the preparations is scored visually in comparison with untreated controls as percentages. For example, 100% activity=the plants have died, 0% activity=like control plants. Tables 40a and 40b below show the effects of the inventive compound (I-01) with structurally similar compounds (from WO2020/245044) on various harmful plants at an application rate corresponding to 320 g/ha or less, which have been obtained by the trial procedure specified hereinafter. The inventive compound (I-01) differs here by variance of a significant structural feature from the structurally similar compound with regard to the R^2 radical. Seeds of monocotyledonous and dicotyledonous weed plants and crop plants are placed in plastic or organic planting pots and covered with soil. The compounds of the invention, formulated in the form of wettable powders (WP) or as emulsion concentrates (EC), are then applied to the surface of the covering soil as aqueous suspension or emulsion with addition of 0.5% additive at a water application rate equivalent to 600 l/ha. After the treatment, the pots are placed in a greenhouse and kept under good growth conditions for the trial plants. After about 3 weeks, the effect of the preparations is scored visually in comparison with untreated controls as percentages. For example, 100% activity=the plants have died, 0% activity=like control plants. Effects/crop compatibilities of selected compounds (Table 39) on various harmful plants at an application rate corresponding to 80 to 320 g/ha that have been obtained by the trial procedure specified hereinabove are shown in Tables 40a and 40b below.

## COC(=O)CCOC(=O)C(OC)Oc1nn(-c2ccccc2F)c(-c2ccc(F)nc2)c1Br (single isomer, unassigned) [Example I-20]
ZEAMX; 20 g/ha
  Post-emergence effect at 20 g/ha against ZEAMX in %: 0%
ZEAMX; 80 g/ha
  Post-emergence effect at 80 g/ha against ZEAMX in %: 20%
ALOMY
  Post-emergence effect against ALOMY: 80%
SETVI; 80 g/ha
  Post-emergence effect against SETVI in %: 80%
SETVI; 320 g/ha
  Post-emergence effect against SETVI in %: 80%
ECHCG; 80 g/ha
  Post-emergence effect against ECHCG in %: 80%
ECHCG; 320 g/ha
  Post-emergence effect against ECHCG in %: 90%
AMARE; 80 g/ha
  Post-emergence effect against AMARE: 80%
AMARE; 320 g/ha
  Post-emergence effect against AMARE: 90%
ABUTH; 80 g/ha
  Post-emergence effect against ABUTH: 80%
ABUTH; 320 g/ha
  Post-emergence effect against ABUTH: 90%
DIGSA
  Post-emergence effect against DIGSA: 90%
VIOTR; 80 g/ha
  Post-emergence effect against VIOTR in %: 80%
VIOTR; 320 g/ha
  Post-emergence effect against VIOTR in %: 90%
VERPE; 80 g/ha
  Post-emergence effect against VERPE in %: 80%
VERPE; 320 g/ha
  Post-emergence effect against VERPE in %: 90%
ORYSA
  Post-emergence effect against ORYSA: 0%
POLCO
  Post-emergence effect against POLCO in %: 80%
AVEFA
  Post-emergence effect against AVEFA: 90%
MATIN; 80 g/ha
  Post-emergence effect against MATIN in %: 80%
MATIN; 320 g/ha
  Post-emergence effect against MATIN in %: 90%
PHBPU; 80 g/ha
  Post-emergence effect against PHBPU in %: 80%
PHBPU; 320 g/ha
  Post-emergence effect against PHBPU in %: 90%

## CCOC(=O)C(F)Oc1nn(-c2ccccc2F)c(-c2ccc(F)nc2)c1Br (stereo not shown) [C]
Various unwanted plants [1]; 80 g/ha
  Post-emergence effect, Effect %, ALOMY: 50%
  Post-emergence effect, Effect %, AVEFA: 60%
  Post-emergence effect, Effect %, ECHCG: 80%
  Post-emergence effect, Effect %, LOLRI: 10%
  Post-emergence effect, Effect %, SETVI: 70%
Various unwanted plants [2]; 320 g/ha
  Pre-emergence effect, Effect %, ALOMY: 80%
  Pre-emergence effect, Effect %, ECHCG: 70%
  Pre-emergence effect, Effect %, LOLRI: 90%
  Pre-emergence effect, Effect %, MATIN: 80%
  Pre-emergence effect, Effect %, SETVI: 70%
Various unwanted plants [2]; 80 g/ha
  Pre-emergence effect, Effect %, ECHCG: 0%
  Pre-emergence effect, Effect %, LOLRI: 10%
  Pre-emergence effect, Effect %, MATIN: 70%
  Pre-emergence effect, Effect %, POLCO: 50%

## CCCC(Oc1nn(-c2ccccc2F)c(-c2ccc(F)nc2)c1Br)C(=O)OCC (stereo not shown) [A]
Various unwanted plants [1]; 80 g/ha
  Post-emergence effect, Effect %, ALOMY: 0%
  Post-emergence effect, Effect %, AVEFA: 30%
  Post-emergence effect, Effect %, ECHCG: 50%
  Post-emergence effect, Effect %, LOLRI: 0%
  Post-emergence effect, Effect %, SETVI: 20%
Various unwanted plants [1]; 320 g/ha
  Post-emergence effect, Effect %, ALOMY: 50%
  Post-emergence effect, Effect %, AVEFA: 40%
  Post-emergence effect, Effect %, ECHCG: 80%
  Post-emergence effect, Effect %, LOLRI: 20%
  Post-emergence effect, Effect %, SETVI: 70%
Various unwanted plants [2]; 320 g/ha
  Pre-emergence effect, Effect %, ALOMY: 60%
  Pre-emergence effect, Effect %, ECHCG: 80%
  Pre-emergence effect, Effect %, LOLRI: 30%
  Pre-emergence effect, Effect %, MATIN: 30%
  Pre-emergence effect, Effect %, SETVI: 70%
Various unwanted plants [2]; 80 g/ha
  Pre-emergence effect, Effect %, ECHCG: 0%
  Pre-emergence effect, Effect %, LOLRI: 20%
  Pre-emergence effect, Effect %, MATIN: 0%
  Pre-emergence effect, Effect %, POLCO: 20%

## CCOC(=O)COc1nn(-c2ccccc2F)c(-c2ccc(F)nc2)c1Br [B]
Various unwanted plants [1]; 80 g/ha
  Post-emergence effect, Effect %, ALOMY: 70%
  Post-emergence effect, Effect %, AVEFA: 80%
  Post-emergence effect, Effect %, ECHCG: 50%
  Post-emergence effect, Effect %, LOLRI: 30%
  Post-emergence effect, Effect %, SETVI: 70%
